Data taken from ChEMBL document CHEMBL3351964, “2-Aminopyrimidin-4(1H)-one as the novel bioisostere of urea: discovery of novel and potent CXCR2 antagonists” (Bioorg Med Chem Lett, 2014).
Values after ≈ are worked out from the molar mass of the structure shown.

Legend:
Assay type in all cases: ADME
[1] = Solubility of the compound in fasted simulated intestinal fluid after 4 hrs
[2] = Stability of the compound in simulated gastric fluid after 24 hrs at 37 degC; details: simulated gi fluid
[3] = Passive permeability of the compound by PAMPA assay; details: read-out: permeability

solubility at 4 h [1]: 33 µg/mL (≈ 82.5 µM)
Stability [2]: Stable
Papp [3]: 37 ×10⁻⁶ cm/s
Compound: CC(C)S(=O)(=O)c1c(Cl)ccc(Nc2nc(=O)cc(C(C)(C)C)[nH]2)c1O
